Structures can show the parent of a compound that is named as a salt.
Assays:
HeLa = assay: Anticancer activity against human HeLa cells assessed as inhibition of cell growth incubated for 48 hrs by MTT assay; assay type: functional, cell-based
HepG2 = assay: Anticancer activity against human HepG2 cells assessed as inhibition of cell growth incubated for 48 hrs by MTT assay; assay type: functional, cell-based; conditions: HepG2, 48 h
MGC-803 = assay: Anticancer activity against human MGC-803 cells assessed as inhibition of cell growth incubated for 48 hrs by MTT assay; assay type: functional, cell-based; conditions: MGC-803, 48 h
T-24 = assay: Anticancer activity against human T-24 cells assessed as inhibition of cell growth incubated for 48 hrs by MTT assay; assay type: functional, cell-based; conditions: T-24, 48 h
[1] = Cytotoxicity against human LO2 cells assessed as reduction in cell viability incubated for 48 hrs by MTT assay; assay type: toxicity, cell-based, L02

| Structure (SMILES) | IC50 (HeLa) | IC50 (HepG2) | IC50 (MGC-803) | IC50 (T-24) | IC50 at 48 h [1] |
| --- | --- | --- | --- | --- | --- |
| CC(C)c1ccc2c(c1)CC[C@H]1[C@](C)(C(=O)OCc3cn(CC4CN(c5ccc(N6CCOCC6)c(F)c5)C(=O)O4)nn3)CCC[C@]21C (stereo not given in full) | 36.6 µM | 28.7 µM | 26.1 µM | 63.6 µM | > 100 µM |
| CC(C)c1ccc2c(c1)CC[C@H]1[C@](C)(C(=O)OCc3cn(CC4CN(c5ccccc5[N+](=O)[O-])C(=O)O4)nn3)CCC[C@]21C (stereo not given in full) | 15 µM | 77.1 µM | 24.5 µM | 27.5 µM | 76.4 µM |
| COc1cc(N2CC(Cn3cc(COC(=O)[C@]4(C)CCC[C@]5(C)c6ccc(C(C)C)cc6CC[C@@H]45)nn3)OC2=O)cc(OC)c1OC (stereo not given in full) | 16.6 µM | 32.3 µM | 24.8 µM | 12.2 µM | 22.7 µM |
| Cc1cccc(N2CC(Cn3cc(COC(=O)[C@]4(C)CCC[C@]5(C)c6ccc(C(C)C)cc6CC[C@@H]45)nn3)OC2=O)c1 (stereo not given in full) | 59.5 µM | 23.5 µM | 24.7 µM | 44.5 µM | 51.5 µM |
| CC(C)c1ccc2c(c1)CC[C@H]1[C@](C)(C(=O)OCc3cn(CC4CN(c5cccc(F)c5)C(=O)O4)nn3)CCC[C@]21C (stereo not given in full) | 32.8 µM | 24.7 µM | 25.8 µM | 62.1 µM | 29.1 µM |
| CC(C)c1ccc2c(c1)CC[C@H]1[C@](C)(C(=O)OCc3cn(CC4CN(c5ccc(F)c(F)c5)C(=O)O4)nn3)CCC[C@]21C (stereo not given in full) | 9.35 µM | 32 µM | 17.4 µM | 26.5 µM | 23.4 µM |
| CC(C)c1ccc2c(c1)CC[C@H]1[C@](C)(C(=O)OCc3cn(CC4CN(c5ccccc5)C(=O)O4)nn3)CCC[C@]21C (stereo not given in full) | 36.1 µM | 18 µM | 12.8 µM | > 100 µM | 20.8 µM |
| COc1cccc2c1C(=O)c1c(O)c3c(c(O)c1C2=O)C[C@@](O)(C(=O)CO)C[C@@H]3O[C@H]1C[C@H](N)[C@H](O)[C@H](C)O1 [DOXORUBICIN HYDROCHLORIDE] | 0.78 µM | 3.43 µM | 2.4 µM | 1.76 µM | 23.5 µM |
| Cc1ccccc1N1CC(Cn2cc(COC(=O)[C@]3(C)CCC[C@]4(C)c5ccc(C(C)C)cc5CC[C@@H]34)nn2)OC1=O (stereo not given in full) | 6.44 µM | 15.6 µM | 12.6 µM | 17.1 µM | 67.3 µM |
| Cc1ccc(N2CC(Cn3cc(COC(=O)[C@]4(C)CCC[C@]5(C)c6ccc(C(C)C)cc6CC[C@@H]45)nn3)OC2=O)cc1 (stereo not given in full) | 2.63 µM | 26.8 µM | 11.1 µM | > 100 µM | 71.7 µM |
| CC(C)c1ccc2c(c1)CC[C@H]1[C@](C)(C(=O)OCc3cn(CC4CN(c5ccc(N6CCOCC6)cc5)C(=O)O4)nn3)CCC[C@]21C (stereo not given in full) | 21.7 µM | 23.9 µM | 22.4 µM | 70.9 µM | 21.4 µM |
| CC(C)c1ccc2c(c1)CC[C@H]1[C@](C)(C(=O)OCc3cn(CC4CN(c5ccccc5F)C(=O)O4)nn3)CCC[C@]21C (stereo not given in full) | 16.6 µM | 20.2 µM | 20.7 µM | > 100 µM | 48.2 µM |
| CC(C)c1ccc2c(c1)CC[C@H]1[C@](C)(C(=O)OCc3cn(CC4CN(c5ccccc5Br)C(=O)O4)nn3)CCC[C@]21C (stereo not given in full) | 30.9 µM | 67.8 µM | 6.47 µM | 9.62 µM | 20.3 µM |
| CC(C)c1ccc2c(c1)CC[C@H]1[C@](C)(C(=O)OCc3cn(CC4CN(c5cccc(Br)c5)C(=O)O4)nn3)CCC[C@]21C (stereo not given in full) | 20.5 µM | 12.6 µM | 21.6 µM | 42.6 µM | 47.6 µM |
| CC(C)c1ccc2c(c1)CC[C@H]1[C@](C)(C(=O)OCc3cn(CC4CN(c5ccccc5Cl)C(=O)O4)nn3)CCC[C@]21C (stereo not given in full) | 14 µM | 13.6 µM | 11 µM | 70.4 µM | 21.4 µM |
| CC(C)c1ccc2c(c1)CC[C@H]1[C@](C)(C(=O)O)CCC[C@]21C [DEHYDROABIETIC ACID] | 30.4 µM | 80.4 µM | > 100 µM | > 100 µM | > 100 µM |
| CC(C)c1ccc2c(c1)CC[C@H]1[C@](C)(C(=O)OCc3cn(CC4CN(c5ccc(Cl)cc5)C(=O)O4)nn3)CCC[C@]21C (stereo not given in full) | 24.7 µM | 18.1 µM | 16.3 µM | 36.4 µM | 24.3 µM |
| CC(C)c1ccc2c(c1)CC[C@H]1[C@](C)(C(=O)OCc3cn(CC4CN(c5ccc(F)cc5)C(=O)O4)nn3)CCC[C@]21C (stereo not given in full) | 46.7 µM | 45.8 µM | 12.7 µM | 55.1 µM | 41.6 µM |
| CC(C)c1ccc2c(c1)CC[C@H]1[C@](C)(C(=O)OCc3cn(CC4CN(c5cccc(Cl)c5)C(=O)O4)nn3)CCC[C@]21C (stereo not given in full) | 6.94 µM | 47.9 µM | 17.6 µM | > 100 µM | 23.9 µM |
| CC(C)c1ccc2c(c1)CC[C@H]1[C@](C)(C(=O)OCc3cn(CC4CN(c5cccc([N+](=O)[O-])c5)C(=O)O4)nn3)CCC[C@]21C (stereo not given in full) | 30.9 µM | 13 µM | 21.2 µM | > 100 µM | 25.9 µM |
| COc1ccc(N2CC(Cn3cc(COC(=O)[C@]4(C)CCC[C@]5(C)c6ccc(C(C)C)cc6CC[C@@H]45)nn3)OC2=O)cc1 (stereo not given in full) | 7.76 µM | 31 µM | 7.16 µM | 18.8 µM | 31.1 µM |
